The values below come from US9289517B2 (COMMISSARIAT A L'ENERGIE ATOMIQUE ET AUX ENERGIES …, priority 2008, dated 2016).

A short description of series [1]: Fluorescence quantum yield F. Format: physicochemical. Particulars: directly, 10 and 40 days after dialysis.
A short description of series [2]: Fluorescence level measured under optical device (capillaries). To be noted: approximately 25 minutes after first measurement; 2.5 nmoles ICG in water, 0.5 nmoles as nanoemulsions.
For series [3] the following is noted: prior-art statement; tissue autofluorescence typically 0.3-0.4 ns; cited from earlier work.
Series [4] in a line: Behaviour in isotonic medium (154 mM sodium chloride). Format: physicochemical.

As for indocyanine green [ICG], the “stability of quantum yield over time” value in series [1] is recorded as “the quantum yield remains stable over time, unlike that of free ICG in water”. The “fluorescence level over time” value in series [2] is recorded as “reduction over time of the fluorescence level”. In series [3], the “fluorescence lifetime of ICG” value is listed as 0.5 ns. Moreover, the “behaviour in isotonic medium” value in series [4] is recorded as “flocculates”.
